The structures appear in SMILES notation.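 A five-concentration, 48-hour dose response in 96-well plates underlies each endpoint, interpolated linearly between surrounding concentrations. At the GI50, growth is halved. The concentration for full growth arrest is given as TGI.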

Some test systems named below: CAKI-1 renal; HT29 colon; NCI-H522 lung; SF-539 CNS; SK-MEL-5 melanoma; SNB-75 CNS; SW-620 colon; TK-10 renal; UACC-62 melanoma; PC-3 prostate.
Experiment in all cases: NCI tumour cell line growth inhibition, 48 h

With `COC12OCCN(C)C1=CC(=O)C1(C)N=NCC12` (stereo not drawn), the TGI in the test with CAKI-1 renal, with HT29 colon, in the test with NCI-H522 lung, with SF-539 CNS, with SK-MEL-5 melanoma and in the test on SNB-75 CNS was over 100 µM in each case. Moreover, the TGI with SW-620 colon, with TK-10 renal and in the test on UACC-62 melanoma was over 100 µM in each case.
For `O=C1c2cc(F)ccc2-c2c1c1ccc([N+](=O)[O-])cc1c(=O)n2CCCBr`, the GI50 in the test with CAKI-1 renal is 27.3 µM; with HT29 colon it was 19.6 µM; in the test on NCI-H522 lung, 4.87 µM; in the test with PC-3 prostate, 28.7 µM; with SK-MEL-5 melanoma, 11.7 µM; with SNB-75 CNS, 2.97 µM. The GI50 was 10.2 µM with SW-620 colon, 64.8 µM in the test on TK-10 renal and 22.8 µM in the test on UACC-62 melanoma. In addition, the TGI is over 100 µM in the test on CAKI-1 renal; over 100 µM in the test on HT29 colon; over 100 µM in the test with NCI-H522 lung; over 100 µM with PC-3 prostate; 40.3 µM with SK-MEL-5 melanoma; 50.5 µM with SNB-75 CNS. Besides, the TGI is over 100 µM with SW-620 colon, over 100 µM in the test with TK-10 renal and 77.7 µM with UACC-62 melanoma.
With `Cc1ccc(S(=O)(=O)OCCOCCOCCOCCOCCOS(=O)(=O)c2ccc(C)cc2)cc1`, the TGI in the test on CAKI-1 renal was over 100 µM; with HT29 colon, over 100 µM; in the test on NCI-H522 lung, over 100 µM; in the test on SK-MEL-5 melanoma it was 65 µM; in the test on SNB-75 CNS, over 100 µM; with SW-620 colon, over 100 µM. Moreover, the TGI in the test on TK-10 renal and in the test with UACC-62 melanoma was over 100 µM in each case.
As to `COc1cc(O)c2c(c1)C(=O)C1=C(C2=O)C(O)C[C@@](C)(O)C1` (stereo partly drawn), the TGI was found to be 14 µM in the test with CAKI-1 renal; 2.39 µM in the test with HT29 colon; 2.47 µM in the test on NCI-H522 lung; 5.74 µM in the test on SF-539 CNS; 2.53 µM in the test on SW-620 colon; 6.14 µM in the test on TK-10 renal. Further, the TGI in the test with UACC-62 melanoma amounted to 3.1 µM.
Consider `CCOC(=O)CN(c1ccccc1)c1nc(=[N+](C)C)ss1`, for which the TGI is 87.8 µM in the test with CAKI-1 renal; 0.492 µM in the test on NCI-H522 lung; over 100 µM with SF-539 CNS; over 100 µM in the test with SNB-75 CNS; over 100 µM with SW-620 colon; over 100 µM in the test with TK-10 renal. This compound returned a TGI with UACC-62 melanoma of 59.3 µM.
`CCCCCCCCCCOC(=O)NCCC`: the TGI in the test with CAKI-1 renal is over 100 µM; in the test on HT29 colon it was 49.7 µM; in the test with NCI-H522 lung, 50.4 µM; with SF-539 CNS it was over 100 µM; with SK-MEL-5 melanoma it was 52.9 µM; in the test on SNB-75 CNS, over 100 µM. Further, the TGI in the test with SW-620 colon, in the test with TK-10 renal and in the test with UACC-62 melanoma was over 100 µM throughout.
Consider `O=C(O)CN(c1ccc(F)cc1)S(=O)(=O)c1ccccc1`, for which the TGI in the test on CAKI-1 renal, with HT29 colon, in the test on NCI-H522 lung, in the test with SF-539 CNS, with SK-MEL-5 melanoma and in the test with SNB-75 CNS was over 100 µM in each case. Besides, the TGI in the test on SW-620 colon, with TK-10 renal and in the test with UACC-62 melanoma was over 100 µM throughout.
For `Cn1c(-c2c(N)n(Cc3ccc(F)cc3)c3nc(C#N)c(C#N)nc23)nc2ccccc21`, the GI50 is 1.36 µM in the test with CAKI-1 renal; 2.61 µM with PC-3 prostate; 13.2 µM in the test on SF-539 CNS; 2.97 µM in the test with SK-MEL-5 melanoma; 2.47 µM in the test with SW-620 colon; 1.09 µM in the test with TK-10 renal. Also, in the test with UACC-62 melanoma, the GI50 was 3.37 µM. Besides, the TGI with CAKI-1 renal was 4.43 µM; in the test with PC-3 prostate, over 50 µM; with SF-539 CNS, over 50 µM; with SK-MEL-5 melanoma, over 50 µM; with SW-620 colon, 21 µM; with TK-10 renal, 3.77 µM. Further, the TGI with UACC-62 melanoma was found to be 26.6 µM.
Consider `COc1cc(/C=C/C(=O)c2c(-c3ccc(F)cc3)nc3sc(C)nn23)cc(OC)c1OC`, for which the GI50 was 3.27 µM in the test on CAKI-1 renal; 2.55 µM in the test with HT29 colon; 1.55 µM in the test with NCI-H522 lung; 2.09 µM in the test with SF-539 CNS; 1.86 µM in the test with SK-MEL-5 melanoma; 2.67 µM in the test with SNB-75 CNS. Moreover, the GI50 in the test on SW-620 colon is 2.02 µM; in the test with TK-10 renal, 2.92 µM; in the test with UACC-62 melanoma, 1.94 µM. Besides, the TGI in the test with CAKI-1 renal turned out to be 18.2 µM; in the test with HT29 colon, 5.51 µM; with NCI-H522 lung, 3.19 µM; in the test with SF-539 CNS, 4.54 µM; with SK-MEL-5 melanoma, 3.99 µM; in the test with SNB-75 CNS, 14.6 µM. In addition, the TGI in the test on SW-620 colon came out at 4.51 µM; in the test with TK-10 renal, 8.14 µM; in the test on UACC-62 melanoma, 4.44 µM.
On to `CN1C(=O)C2(c3ccccc31)C1CC3C(CO1)C1C2C3(CO)CN1C#N` (stereo not drawn), for which the TGI in the test with CAKI-1 renal, in the test with HT29 colon, with NCI-H522 lung, in the test with PC-3 prostate, with SK-MEL-5 melanoma and in the test on SNB-75 CNS was over 100 µM throughout. The TGI with TK-10 renal and in the test on UACC-62 melanoma was over 100 µM in each case.
Consider `[Cu+2].[NH-]C(CC(=O)O)C(=O)O.[NH-]C(CC(=O)O)C(=O)O` (stereo not drawn), for which the GI50 was over 100 µM with CAKI-1 renal; over 100 µM in the test on HT29 colon; 91.8 µM in the test with NCI-H522 lung; over 100 µM with PC-3 prostate; 26.5 µM with SK-MEL-5 melanoma; over 100 µM with SNB-75 CNS. Further, the GI50 in the test with SW-620 colon, in the test with TK-10 renal and in the test on UACC-62 melanoma was over 100 µM throughout. The TGI in the test on CAKI-1 renal, with HT29 colon, in the test on NCI-H522 lung, with PC-3 prostate, with SK-MEL-5 melanoma and in the test with SNB-75 CNS was over 100 µM each time. Also, the TGI in the test with SW-620 colon, with TK-10 renal and in the test with UACC-62 melanoma was over 100 µM in each case.
For `CC[PH+](CC)CC.CC[PH+](CC)CC.[Au]`, the GI50 was 6.8 µM in the test on CAKI-1 renal; 16.3 µM in the test on HT29 colon; 0.308 µM in the test on NCI-H522 lung; 8.3 µM with SF-539 CNS; 3.5 µM with SK-MEL-5 melanoma; 15 µM in the test with SNB-75 CNS. Moreover, the GI50 was 5.13 µM in the test with SW-620 colon, 19.9 µM in the test with TK-10 renal and 3.9 µM in the test on UACC-62 melanoma. Further, the TGI in the test with CAKI-1 renal is 13.5 µM; with HT29 colon, 32.4 µM; with NCI-H522 lung it was 1.25 µM; in the test on SF-539 CNS, 25.3 µM; in the test with SK-MEL-5 melanoma, 17.5 µM; in the test with SNB-75 CNS, 29 µM. For the same compound, the TGI in the test with SW-620 colon is 15.6 µM; in the test with TK-10 renal it was 35.7 µM; with UACC-62 melanoma it was 19.1 µM.

The record behind these values is PubChem BioAssay (NCI).
